Results published in PubChem BioAssay (NCI).
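48-hour exposure; five concentrations; linearly interpolated endpoints. GI50: concentration for 50% inhibition of growth. The concentration for full growth arrest is given as TGI.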

What was measured:
Test in all cases: NCI-60 cell line screen, 48 h
MDA-MB-435 = system: MDA-MB-435
MALME-3M melanoma = system: MALME-3M melanoma
SF-295 CNS = system: SF-295 CNS
HCT-116 colon = system: HCT-116 colon
OVCAR-5 ovarian = system: OVCAR-5 ovarian
OVCAR-8 ovarian = system: OVCAR-8 ovarian
M14 melanoma = system: M14 melanoma
A549 NSCLC = system: A549 NSCLC
EKVX NSCLC = system: EKVX NSCLC
HT29 colon = system: HT29 colon
SW-620 colon = system: SW-620 colon
NCI-H522 lung = system: NCI-H522 lung
SK-MEL-28 melanoma = system: SK-MEL-28 melanoma
OVCAR-3 ovarian = system: OVCAR-3 ovarian
CCRF-CEM leukemia = system: CCRF-CEM leukemia
HCC-2998 colon = system: HCC-2998 colon
DU-145 prostate = system: DU-145 prostate
NCI-H23 lung = system: NCI-H23 lung
HS 578T breast = system: HS 578T breast
HOP-92 NSCLC = system: HOP-92 NSCLC
COLO 205 colon = system: COLO 205 colon
K-562 leukemia = system: K-562 leukemia
UACC-257 melanoma = system: UACC-257 melanoma
LOX IMVI melanoma = system: LOX IMVI melanoma
IGROV1 ovarian = system: IGROV1 ovarian
OVCAR-4 ovarian = system: OVCAR-4 ovarian
RPMI-8226 leukemia = system: RPMI-8226 leukemia
SF-539 CNS = system: SF-539 CNS
PC-3 prostate = system: PC-3 prostate
A498 renal = system: A498 renal
SK-MEL-2 melanoma = system: SK-MEL-2 melanoma
SN12C renal = system: SN12C renal
SK-MEL-5 melanoma = system: SK-MEL-5 melanoma
HOP-62 NSCLC = system: HOP-62 NSCLC
TK-10 renal = system: TK-10 renal
RXF 393 renal = system: RXF 393 renal
SNB-19 CNS = system: SNB-19 CNS
NCI-H460 lung = system: NCI-H460 lung
SNB-75 CNS = system: SNB-75 CNS
MDA-MB-231 breast = system: MDA-MB-231 breast
UACC-62 melanoma = system: UACC-62 melanoma
CAKI-1 renal = system: CAKI-1 renal
SF-268 CNS = system: SF-268 CNS
NCI/ADR-RES ovarian = system: NCI/ADR-RES ovarian
MDA-MB-468 breast = system: MDA-MB-468 breast
SK-OV-3 ovarian = system: SK-OV-3 ovarian
BT-549 breast = system: BT-549 breast
786-0 renal = system: 786-0 renal
KM12 colon = system: KM12 colon
UO-31 renal = system: UO-31 renal
ACHN renal = system: ACHN renal
U251 CNS = system: U251 CNS
NCI-H226 lung = system: NCI-H226 lung
MCF7 breast = system: MCF7 breast
MOLT-4 leukemia = system: MOLT-4 leukemia
T-47D breast = system: T-47D breast
HL-60(TB) leukemia = system: HL-60(TB) leukemia
HCT-15 colon = system: HCT-15 colon

Cn1cc(-c2cc(N)n3nc(-c4cn(C)c5ncc(Br)cc45)cc3n2)c2cc(Br)cnc21
GI50 (MDA-MB-435): 1.95 µM
TGI (MDA-MB-435): 4.29 µM
GI50 (MALME-3M melanoma): 1.93 µM
TGI (MALME-3M melanoma): 3.49 µM
GI50 (SF-295 CNS): 1.86 µM
TGI (SF-295 CNS): 4.02 µM
GI50 (HCT-116 colon): 1.72 µM
TGI (HCT-116 colon): 3.3 µM
GI50 (OVCAR-5 ovarian): 10.5 µM
TGI (OVCAR-5 ovarian): 33.9 µM
GI50 (OVCAR-8 ovarian): 2.49 µM
TGI (OVCAR-8 ovarian): 6.67 µM
GI50 (M14 melanoma): 1.65 µM
TGI (M14 melanoma): 3.16 µM
GI50 (A549 NSCLC): 2.07 µM
TGI (A549 NSCLC): 4.97 µM
GI50 (EKVX NSCLC): 2.18 µM
TGI (EKVX NSCLC): 8.92 µM
GI50 (HT29 colon): 1.8 µM
TGI (HT29 colon): 3.44 µM
GI50 (SW-620 colon): 1.77 µM
TGI (SW-620 colon): 3.59 µM
GI50 (NCI-H522 lung): 2.27 µM
TGI (NCI-H522 lung): 5.52 µM
GI50 (SK-MEL-28 melanoma): 1.77 µM
TGI (SK-MEL-28 melanoma): 3.35 µM
GI50 (OVCAR-3 ovarian): 1.72 µM
TGI (OVCAR-3 ovarian): 3.21 µM
GI50 (CCRF-CEM leukemia): 1.43 µM
TGI (CCRF-CEM leukemia): 3.72 µM
GI50 (HCC-2998 colon): 1.73 µM
TGI (HCC-2998 colon): 3.44 µM
GI50 (DU-145 prostate): 2.54 µM
TGI (DU-145 prostate): 6.77 µM
GI50 (NCI-H23 lung): 1.92 µM
TGI (NCI-H23 lung): 3.76 µM
GI50 (HS 578T breast): 3.19 µM
TGI (HS 578T breast): 15.7 µM
GI50 (HOP-92 NSCLC): 1.71 µM
TGI (HOP-92 NSCLC): 6.42 µM
GI50 (COLO 205 colon): 4.29 µM
TGI (COLO 205 colon): 31.8 µM
GI50 (K-562 leukemia): 2.34 µM
TGI (K-562 leukemia): 8.45 µM
GI50 (UACC-257 melanoma): 2.28 µM
TGI (UACC-257 melanoma): 5.33 µM
GI50 (LOX IMVI melanoma): 1.59 µM
TGI (LOX IMVI melanoma): 2.96 µM
GI50 (IGROV1 ovarian): 4.65 µM
TGI (IGROV1 ovarian): 18.5 µM
GI50 (OVCAR-4 ovarian): 2.11 µM
TGI (OVCAR-4 ovarian): 4.57 µM
GI50 (RPMI-8226 leukemia): 2.23 µM
TGI (RPMI-8226 leukemia): 5.87 µM
GI50 (SF-539 CNS): 1.71 µM
TGI (SF-539 CNS): 3.18 µM
GI50 (PC-3 prostate): 2.49 µM
TGI (PC-3 prostate): 8.41 µM
GI50 (A498 renal): > 100 µM
TGI (A498 renal): > 100 µM
GI50 (SK-MEL-2 melanoma): 2.01 µM
TGI (SK-MEL-2 melanoma): 4.4 µM
GI50 (SN12C renal): 10.6 µM
TGI (SN12C renal): 34.9 µM
GI50 (SK-MEL-5 melanoma): 3.95 µM
TGI (SK-MEL-5 melanoma): 16.8 µM
GI50 (HOP-62 NSCLC): 2.36 µM
TGI (HOP-62 NSCLC): 6.63 µM
GI50 (TK-10 renal): 1.79 µM
TGI (TK-10 renal): 4.03 µM
GI50 (RXF 393 renal): 2.62 µM
TGI (RXF 393 renal): 6.9 µM
GI50 (SNB-19 CNS): 1.95 µM
TGI (SNB-19 CNS): 4.05 µM
GI50 (NCI-H460 lung): 1.91 µM
TGI (NCI-H460 lung): 3.89 µM
GI50 (SNB-75 CNS): 8.48 µM
TGI (SNB-75 CNS): 26.3 µM
GI50 (MDA-MB-231 breast): 2.59 µM
TGI (MDA-MB-231 breast): 9.79 µM
GI50 (UACC-62 melanoma): 1.58 µM
TGI (UACC-62 melanoma): 3.03 µM
GI50 (CAKI-1 renal): 3.68 µM
TGI (CAKI-1 renal): 15.4 µM
GI50 (SF-268 CNS): 7.52 µM
TGI (SF-268 CNS): 38 µM
GI50 (NCI/ADR-RES ovarian): 2.04 µM
TGI (NCI/ADR-RES ovarian): 4.7 µM
GI50 (MDA-MB-468 breast): 1.54 µM
TGI (MDA-MB-468 breast): 2.95 µM
GI50 (SK-OV-3 ovarian): 19.1 µM
TGI (SK-OV-3 ovarian): 36.4 µM
GI50 (BT-549 breast): 3.38 µM
TGI (BT-549 breast): 14.1 µM
GI50 (786-0 renal): 1.77 µM
TGI (786-0 renal): 3.46 µM
GI50 (KM12 colon): 1.83 µM
TGI (KM12 colon): 5.81 µM
GI50 (UO-31 renal): 6.81 µM
TGI (UO-31 renal): 22.1 µM
GI50 (ACHN renal): 1.96 µM
TGI (ACHN renal): 3.72 µM
GI50 (U251 CNS): 1.93 µM
TGI (U251 CNS): 3.89 µM
GI50 (NCI-H226 lung): 8.32 µM
TGI (NCI-H226 lung): 26.4 µM
GI50 (MCF7 breast): 1.72 µM
TGI (MCF7 breast): 4.12 µM
GI50 (MOLT-4 leukemia): 1.53 µM
TGI (MOLT-4 leukemia): 4.37 µM
GI50 (T-47D breast): 2.35 µM
TGI (T-47D breast): 9.43 µM
GI50 (HL-60(TB) leukemia): 2 µM
TGI (HL-60(TB) leukemia): 4.94 µM
GI50 (HCT-15 colon): 1.59 µM
TGI (HCT-15 colon): 3.24 µM
